Results as given in patent US9340530B2, “Preparation and use of bicyclic himbacine derivatives as PAR-1 receptor antagonists” (Merck, Sharp & Dohme Corp., priority 2012, dated 2016).

Biological target: PAR1 (Homo sapiens (Human), UniProt P25116)
Assay: Par-1 FLIPR assay (calcium, HEK 293 cells, PAR1 activating peptide)
Type: cell-based
Details: PAR1 selective receptor-activating peptide at 80% activation
Experimental: HEK 293 Cells were grown in media containing DMEM, 10% FBS pen/strep/L-Glutamine and non-essential amino acids. The cells were plated in 384-well PDL coated plates at 12000 cells/well and incubated overnight at 37° C./5% CO2. Media was then removed from the cells, which were then incubated with buffer (Hank's containing HEPES and Chaps) containing FLIPR calcium-5 dye, made with buffer containing probenecid, for 60 minutes at 37° C. Varying concentrations of compound in a final concentration of 5% DMSO were then added to the cells and incubated at 25° C. for 30 minutes. […] The FLIPR reads at an excitation wavelength of 480 nm and an emission wavelength of 535 nm, and performs 60 scans over a 1-2 min reading time. The data were analyzed by taking the peak signal over a portion of the range of the 60 scans and dividing this signal by the minimum signal for that same range.

PAR1, sequence (P25116 22-425): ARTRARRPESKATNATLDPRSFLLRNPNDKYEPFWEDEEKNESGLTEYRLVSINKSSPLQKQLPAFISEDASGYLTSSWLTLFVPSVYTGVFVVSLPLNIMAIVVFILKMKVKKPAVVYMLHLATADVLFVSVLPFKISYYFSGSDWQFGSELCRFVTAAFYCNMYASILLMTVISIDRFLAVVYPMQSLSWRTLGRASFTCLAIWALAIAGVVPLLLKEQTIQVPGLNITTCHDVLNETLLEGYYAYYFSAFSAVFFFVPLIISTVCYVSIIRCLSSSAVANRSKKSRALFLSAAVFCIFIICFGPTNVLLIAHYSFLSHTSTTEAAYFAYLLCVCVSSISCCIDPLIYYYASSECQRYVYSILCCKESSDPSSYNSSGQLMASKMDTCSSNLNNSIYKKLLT

| Structure (SMILES) | IC50 |
| --- | --- |
| C[C@H]1OC(=O)[C@]2(Cc3nnn(C)n3)CC(F)(F)[C@@H](C)[C@H](/C=C/c3ccc(-c4ccccc4Cl)cn3)C12 (some centres unmarked) [Example 29a] | 2.1 nM |
| Cc1cn([C@@]23CC(F)(F)[C@@H](C)[C@H](/C=C/c4ccc(-c5ccccc5C#N)cn4)[C@@H]2[C@@H](C)OC3=O)nn1 [Example 32] | 1.4 nM |
| Cc1nnnn1[C@@]12CC(F)(F)[C@@H](C)[C@H](/C=C/c3ccc(-c4ccccc4C#N)cn3)[C@@H]1[C@@H](C)OC2=O [Example 34] | 6.4 nM |
| C[C@H]1OC(=O)[C@]2(NC3CCC3)CC(F)(F)[C@@H](C)[C@H](/C=C/c3ccc(-c4ccccc4C#N)cn3)[C@H]12 [Example 36] | 4.1 nM |
| C[C@H]1OC(=O)[C@]2(N(C)C)CC(F)(F)[C@@H](C)[C@H](/C=C/c3ccc(-c4ccccc4C#N)cn3)[C@H]12 [Example 37] | 5.3 nM |
| CC1[C@H](/C=C/c2ccc(-c3ccccc3C#N)cn2)C2[C@@H](C)OC(=O)[C@]2(NCc2cccnc2)CC1(F)F (some centres unmarked) [Example 38] | 4.7 nM |
| CC1[C@H](/C=C/c2ccc(-c3ccccc3C#N)cn2)C2[C@@H](C)OC(=O)[C@]2(NCc2nccs2)CC1(F)F (some centres unmarked) [Example 39] | 2.2 nM |
| CC1[C@H](/C=C/c2ccc(-c3ccccc3C#N)cn2)C2[C@@H](C)OC(=O)[C@]2(NCc2ccncc2)CC1(F)F (some centres unmarked) [Example 40] | 3.9 nM |
| CC1[C@H](/C=C/c2ccc(-c3ccccc3C#N)cn2)C2[C@@H](C)OC(=O)[C@]2(NCc2ncco2)CC1(F)F (some centres unmarked) [Example 41] | 6.5 nM |
| CC1[C@H](/C=C/c2ccc(-c3ccccc3C#N)cn2)C2[C@@H](C)OC(=O)[C@]2(NCc2cocn2)CC1(F)F (some centres unmarked) [Example 42] | 2.4 nM |
| C[C@H]1OC(=O)[C@]2(NCc3cncs3)CC(F)(F)[C@@H](C)[C@H](/C=C/c3ccc(-c4ccccc4C#N)cn3)[C@H]12 [Example 43] | 1.3 nM |
| C[C@H]1OC(=O)[C@]2(NCc3cscn3)CC(F)(F)[C@@H](C)[C@H](/C=C/c3ccc(-c4ccccc4C#N)cn3)[C@H]12 [Example 44] | 1.6 nM |
| C[C@H]1OC(=O)[C@]2(NCc3cnccn3)CC(F)(F)[C@@H](C)[C@H](/C=C/c3ccc(-c4ccccc4C#N)cn3)[C@H]12 [Example 45] | 4.4 nM |
| C[C@H]1OC(=O)[C@]2(NCc3ccccn3)CC(F)(F)[C@@H](C)[C@H](/C=C/c3ccc(-c4ccccc4C#N)cn3)[C@H]12 [Example 46] | 3.1 nM |
| C[C@H]1OC(=O)[C@]2(NCc3cncnc3)CC(F)(F)[C@@H](C)[C@H](/C=C/c3ccc(-c4ccccc4C#N)cn3)[C@H]12 [Example 47] | 5.7 nM |
| C[C@H]1OC(=O)[C@]2(NCc3nccn3C)CC(F)(F)[C@@H](C)[C@H](/C=C/c3ccc(-c4ccccc4C#N)cn3)[C@H]12 [Example 48] | 3 nM |
| C[C@H]1OC(=O)[C@]2(NC3COC3)CC(F)(F)[C@@H](C)[C@H](/C=C/c3ccc(-c4ccccc4C#N)cn3)[C@H]12 [Example 49] | 10.4 nM |
| C[C@H]1OC(=O)[C@]2(NCC3CC3)CC(F)(F)[C@@H](C)[C@H](/C=C/c3ccc(-c4ccccc4C#N)cn3)[C@H]12 [Example 50] | 2.7 nM |
| C[C@H]1OC(=O)[C@]2(NCC(C)(C)C)CC(F)(F)[C@@H](C)[C@H](/C=C/c3ccc(-c4ccccc4C#N)cn3)[C@H]12 [Example 51] | 10.2 nM |

| Structure (SMILES) | IC50 |
| --- | --- |
| C[C@H]1OC(=O)[C@]2(NCC(O)CCl)CC(F)(F)[C@@H](C)[C@H](/C=C/c3ccc(-c4ccccc4C#N)cn3)[C@H]12 (some centres unmarked) [Example 52] | 4.3 nM |
| CC(=O)N[C@@]12CC(F)(F)[C@@H](C)[C@H](/C=C/c3ccc(-c4ccccc4C#N)cn3)[C@@H]1[C@@H](C)OC2=O [Example 53] | 26 nM |
| C[C@H]1OC(=O)[C@]2(NC(=O)NC3CCC3)CC(F)(F)[C@@H](C)[C@H](/C=C/c3ccc(-c4ccccc4C#N)cn3)[C@H]12 [Example 54] | 7.1 nM |
| C[C@H]1OC(=O)[C@]2(NC(=O)c3nccs3)CC(F)(F)[C@@H](C)[C@H](/C=C/c3ccc(-c4ccccc4C#N)cn3)[C@H]12 [Example 57] | 2.8 nM |
| C[C@H]1OC(=O)[C@]2(NC(=O)c3cccc(F)c3)CC(F)(F)[C@@H](C)[C@H](/C=C/c3ccc(-c4ccccc4C#N)cn3)[C@H]12 [Example 58] | 3 nM |
| C[C@H]1OC(=O)[C@]2(NC(=O)c3ccc(Cl)nc3)CC(F)(F)[C@@H](C)[C@H](/C=C/c3ccc(-c4ccccc4C#N)cn3)[C@H]12 [Example 59] | 3 nM |
| Cc1cc(C(=O)N[C@@]23CC(F)(F)[C@@H](C)[C@H](/C=C/c4ccc(-c5ccccc5C#N)cn4)[C@@H]2[C@@H](C)OC3=O)no1 [Example 60] | 3.4 nM |
| Cc1oncc1C(=O)N[C@@]12CC(F)(F)[C@@H](C)[C@H](/C=C/c3ccc(-c4ccccc4C#N)cn3)[C@@H]1[C@@H](C)OC2=O [Example 61] | 33.3 nM |
| C[C@@H]1[C@H](/C=C/c2ccc(-c3ccccc3C#N)cn2)[C@H]2[C@@H](C)OC(=O)[C@]2(NC(=O)c2ccc(F)cc2)CC1(F)F [Example 62] | 1.7 nM |
| C[C@H]1OC(=O)[C@]2(NC(=O)c3ccccc3)CC(F)(F)[C@@H](C)[C@H](/C=C/c3ccc(-c4ccccc4C#N)cn3)[C@H]12 [Example 63] | 2.3 nM |
| C[C@H]1OC(=O)[C@]2(NC(=O)c3ccc(C#N)cc3)CC(F)(F)[C@@H](C)[C@H](/C=C/c3ccc(-c4ccccc4C#N)cn3)[C@H]12 [Example 64] | 2.9 nM |
| C[C@H]1OC(=O)[C@]2(NC(=O)C3CC3)CC(F)(F)[C@@H](C)[C@H](/C=C/c3ccc(-c4ccccc4C#N)cn3)[C@H]12 [Example 66] | 3.5 nM |
| CC1[C@H](/C=C/c2ccc(-c3ccccc3C#N)cn2)C2[C@@H](C)OC(=O)[C@@]2(NC(=O)c2ccn(C)n2)CC1(F)F (some centres unmarked) [Example 67] | 3.7 nM |
| C[C@H]1OC(=O)[C@]2(S(C)(=O)=O)CC(F)(F)[C@@H](C)[C@H](/C=C/c3ccc(-c4ccccc4C#N)cn3)[C@H]12 [Example 70] | 15.6 nM |
| C[C@H]1OC(=O)[C@]2(Br)CC(F)(F)[C@@H](C)[C@H](/C=C/c3ccc(-c4ccccc4C#N)cn3)[C@H]12 [Example 71] | 4.8 nM |
| CO[C@@]12CC(F)(F)[C@@H](C)[C@H](/C=C/c3ccc(-c4ccccc4C#N)cn3)[C@@H]1[C@@H](C)OC2=O [Example 72] | 2.5 nM |
| Cc1cccc(-c2ccc(/C=C/[C@@H]3[C@@H]4[C@@H](C)OC(=O)[C@]4(N)CC(F)(F)[C@H]3C)nc2)c1C#N [Example 73] | 3.3 nM |
| C[C@H]1OC(=O)[C@]2(N)CC(F)(F)[C@@H](C)[C@H](/C=C/c3ccc(-c4ccccc4-c4nnn[nH]4)cn3)[C@H]12 [Example 74] | 872 nM |
| C[C@H]1OC(=O)[C@]2(CN)CC(F)(F)[C@@H](C)[C@H](/C=C/c3ccc(-c4ccccc4C#N)cn3)[C@H]12 [Example 76] | 2.3 nM |
